Assay results reported in patent publication US4370335A, “Antisecretory 4-diphenylmethyl-1-[(oxoalkyl)imino]methyl-piperidines and their derivatives” (McNeilab, Inc., priority 1982, dated 1983).
Structures can show the parent of a compound that is named as a salt.

System: gastric acid secretion
Test: Acute Gastric Fistula, Rat: inhibition of gastric acid secretion (Total Acid Output)
Assay type: in vivo, Female Sprague-Dawley rats
Details: po, 1 h, one hour prior to surgery, dose for average 50% inhibition in Total Acid Output versus controls, collection at one hour
Procedure: The compounds of the invention are useful for inhibition of gastric acid secretion as measured by the following test. Female Sprague-Dawley rats are fasted twenty-four hours before testing and are given water ad libidum while being kept in individual cages. On the day of testing, the rats are weighed and are selected so that the rats in each test weigh within a range ±20 grams.
Surgery is carried out under light ether anesthesia. As soon as the rat is anesthetized its teeth are removed and a mid-line incision is made on the abdomen about 11/2 inches in length and the stomach and duodenum are exposed. If at this point the stomach is filled with food or fecal material, the rat is discarded. If the condition of the stomach is acceptable, a purse string stitch is placed on the fundic portion of the stomach with a suture, taking care not to pierce any blood vessels in the area. A small nick is then made into the stomach in the center of the purse string, and a cannula, consisting of a small vinyl tube with a flange on one end, is put into the stomach, and the purse string stitch is closed tightly around the flange. The test compound is administered either intraduodenally (i.d.) immediately after surgery or orally (p.o.) one hour prior to surgery at doses generally ranging from about 0.25 to about 160 mg/kg in a volume of 0.5 ml/100 grams rat. Control rats receive the test vehicle, 0.5% aqueous methyl cellulose.
After the surgery and (in the case of i.d. administration) after administration of the test compound, the abdominal wall and skin are closed simultaneously with three or four 18 mm wound clips and a collecting tube is placed on the cannula. Each rat is then placed in a box in which a longitudinal slit has been made to allow the cannula to hang freely and to allow the rat to move about unencumbered. After the rat has been allowed to stabilize for thirty minutes, the collection tube on the cannula is discarded and replaced with a clean tube to receive the gastric juice. Collections are made at one hour. At the end of the study, the cannula is removed and the rat is sacrificed.
The sample of gastric contents collected is drained into a centrifuge tube and centrifuged to pack down the sediment. The volume is read and a 1 ml aliquot of the supernatant is put into a beaker containing 10 ml distilled water and is titrated to pH 7 using 0.01 N sodium hydroxide. Results are determined for Volume, Titratable Acid and Total Acid Output, where Volume equals total ml of gastric juice minus sediment; Titratable Acid (meq/l) equals amount of 0.01 N sodium hydroxide needed to titrate the acid to pH 7; and Total Acid Output equals Titratable Acid times Volume. Results are reported as the ED50 dose (mg/kg required to produce an average of 50% inhibition in Total Acid Output versus controls in all the animals tested for a particular compound) and as percent inhibition.
The results obtained for representative compounds of the invention by the above test for inhibition of gastric secretion are shown in Table I: […]

| Compound | ED50 |
| --- | --- |
| CC1(CCCCCCN=CN2CCC(C(c3ccccc3)c3ccccc3)CC2)OCCO1 [Example 1, 4-(Diphenylmethyl)-1-{{[6-(2-methyl-1,3-dioxolan-2-yl)hexyl]imino}methyl}piperidine (E)-2-Butenedioate (1:1) Hydrate (10:7)] | 3.14 mg/kg |
| CC(=O)CCCCCCN=CN1CCC(C(c2ccccc2)c2ccccc2)CC1 [Example 2, 4-(Diphenylmethyl)-1-{[(7-oxooctyl)imino]methyl}piperidine (E)-2-Butenedioate (1:1) Hydrate (10:7)] | 14.7 mg/kg |
| CC(O)CCCCCCN=CN1CCC(C(c2ccccc2)c2ccccc2)CC1 (stereo not drawn) [Example 3, 4-(Diphenylmethyl)-1-{[(7-hydroxyoctyl)imino]methyl}piperidine 2-Naphthalenesulfonate (1:1) Hydrate (4:1)] | 78.1 mg/kg |
| CC(CCCCCCN=CN1CCC(C(c2ccccc2)c2ccccc2)CC1)=NO [Example 4, 4-(Diphenylmethyl)-1-{{[7-(hydroxyimino)octyl]imino}methyl}piperidine 2-Naphthalenesulfonate (1:1) Hydrate (5:1)] | 12.3 mg/kg |
| CC(=O)CCCCCCCCN=CN1CCC(C(c2ccccc2)c2ccccc2)CC1 [Example 5] | 4.76 mg/kg |
| CC(=O)CN=CN1CCC(C(c2ccccc2)c2ccccc2)CC1 [Example 6, 4-Diphenylmethyl-1-[(2-oxopropyl)imino]methyl piperidine Hydrochloride (1:1) Hydrate (10:1)] | 6.07 mg/kg |
